Results from patent publication US20250064773A1, “TARGETING ERO1 ALPHA WITH AURONE DERIVATIVES” (West Virginia University Board of Governors on behalf of …, priority 2021, published 2025).
“Also recorded” adds a separate entry of the source.

Tested on: PC-9 cells
Experiment: Soft agar clonogenic assay, PC-9
Type: cell-based
Conditions: 14 days, 3.75-15 μM
Description: We utilized an MTT assay to determine the potency of the compounds for inhibiting cell growth. […] We next asked whether T151742 induced inhibition of cell growth was dependent on ERO1α expression. As shown in FIG. 6C two ERO1α deleted clones in the PC-9 cell line were isolated. Using an MTT assay to determine overall cellar viability, a non-targeted control (scramble), and both ERO1α knockout clones was subjected to treatment with T151742 for 72 hours (See FIG. 6D). […] Though only slight differences were observed between T151742 and EN-460 we tested the effects of these compounds in a clonogenic assay which is a better test for inhibition of self-renewal.
FIG. 7A and FIG. 7B show 1000 cells/well were plated in a 12-well plate in triplicate with either 0.5% DMSO, T151742, or EN-460 and allowed to form colonies for 14 days. Colonies were subsequently stained with 0.01% Crystal Violet, imaged, and quantified using ImageJ. […] Colonies were stained with 0.01% Crystal Violet, imaged, and quantified using ImageJ.
Cell Lines: PC-9 cell line used was obtained from Sigma Aldrich and grown in RPMI 1640 medium with 10% fetal bovine serum and 1% penicillin/streptomycin. […] Plate was then read on the BioTek Cytation 5 at 530/590 nm. […] Plate was then read at 570 nm. […] Images were then quantified using ImageJ. […]

CN(C)c1ccc(/C=C2\Oc3cc(O)ccc3C2=O)cc1 [Compound T151742]
activity in clonogenicity assay (colony number): retained activity; also recorded: significantly more potent at reducing colony number
